Experimental data: US20020111274A1, “1-alkyl-3-[1-(substituted phenyl) benzotriazol-6-yl] uracils” (BASF Aktiengesellschaft, priority 2000, published 2002)

Key:
Parameters in all cases: scale not given here
ECHOG Barnyardgrass = assay: Postemergence herbicidal evaluation, ECHOG; assay type: in vivo, Echinochloa crus-galli, (L.) Beau; details: rated two - three weeks after treatment
Method in brief: (§1)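 Seedlings grown about two weeks were sprayed with compound in 80/20 acetone/water containing 1.0% methylated seed oil, at the equivalent of about 0.006 to 0.400 kg/ha, through a nozzle at 40 psi. Plants were kept in the greenhouse and rated visually about two to three weeks after treatment.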

[1] = system: IPOHE Morningglory, Ivyleaf; assay: Preemergence herbicidal evaluation, IPOHE; assay type: in vivo, Ipomoea hederacea, (L.) Jacq.; details: rated four to five weeks after treatment
Method in brief: (§2)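 Seeds mixed with potting soil were planted on about one inch of soil in cups, then sprayed with the test compound in aqueous acetone at roughly 0.013 to 0.800 kg per hectare. Plants were kept under standard greenhouse care and injury was rated four to five weeks after treatment.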

ZEAMX Corn, Field [2] = assay: Preemergence herbicidal evaluation, ZEAMX; assay type: in vivo, Zea mays, L. (Sammel-Bezeichnung); details: rated four to five weeks after treatment
Method in brief: as §2

[3] = system: CHEAL Lambsquarters, Common; assay: Postemergence herbicidal evaluation, CHEAL; assay type: in vivo, Chenopodium album, L.; details: rated two - three weeks after treatment
Method in brief: as §1

[4] = system: IPOHE Morningglory, Ivyleaf; assay: Postemergence herbicidal evaluation, IPOHE; assay type: in vivo, Ipomoea hederacea, (L.) Jacq.; details: rated two - three weeks after treatment
Method in brief: as §1

GALAP Galium = assay: Preemergence herbicidal evaluation, GALAP; assay type: in vivo, Galium aparine; details: rated four to five weeks after treatment
Method in brief: as §2

CASOB Sicklepod = assay: Postemergence herbicidal evaluation, CASOB; assay type: in vivo, Cassia obtusifolia, L.; details: rated two - three weeks after treatment
Method in brief: as §1

ZEAMX Corn, Field [5] = assay: Postemergence herbicidal evaluation, ZEAMX; assay type: in vivo, Zea mays, L. (Sammel-Bezeichnung); details: rated two - three weeks after treatment
Method in brief: as §1

GLXMAW Soybean, Williams = assay: Postemergence herbicidal evaluation, GLXMAW; assay type: in vivo, Glycine max, (L.) Merr. cv Williams; details: rated two - three weeks after treatment
Method in brief: as §1

[6] = system: TRZAWR Wheat, Winter, cv Riband; assay: Postemergence herbicidal evaluation, TRZAWR; assay type: in vivo, Triticum aestivum; details: rated two - three weeks after treatment
Method in brief: as §1

[7] = system: TRZAWR Wheat, Winter, cv Riband; assay: Preemergence herbicidal evaluation, TRZAWR; assay type: in vivo, Triticum aestivum; details: rated four to five weeks after treatment
Method in brief: as §2

AMBEL Ragweed, Common = assay: Postemergence herbicidal evaluation, AMBEL; assay type: in vivo, Ambrosia artemisifolia, L.; details: rated two - three weeks after treatment
Method in brief: as §1

SMILES: COC(=O)COc1ccc(-n2nnc3cc(F)c(-n4c(=O)cc(C(F)(F)F)n(C)c4=O)cc32)cc1 [Example 45]
- Postemergence herbicidal rating ECHCG (ECHOG Barnyardgrass; rate 0.008 kg/ha): 0.0
- Postemergence herbicidal rating ECHCG (ECHOG Barnyardgrass; rate 0.016 kg/ha): 5.0
- Postemergence herbicidal rating ECHCG (ECHOG Barnyardgrass; rate 0.032 kg/ha): 8.0
- Postemergence herbicidal rating ECHCG (ECHOG Barnyardgrass; rate 0.062 kg/ha): 9.0
- Preemergence herbicidal rating, IPOHE ([1]; rate 0.016 kg/ha): 0.0
- Preemergence herbicidal rating, IPOHE ([1]; rate 0.032 kg/ha): 0.0
- Preemergence herbicidal rating, IPOHE ([1]; rate 0.062 kg/ha): 0.0
- Preemergence herbicidal rating, IPOHE ([1]; rate 0.125 kg/ha): 4.0
- Preemergence herbicidal rating, ZEAMX (ZEAMX Corn, Field [2]; rate 0.016 kg/ha): 0.0
- Preemergence herbicidal rating, ZEAMX (ZEAMX Corn, Field [2]; rate 0.032 kg/ha): 0.0
- Preemergence herbicidal rating, ZEAMX (ZEAMX Corn, Field [2]; rate 0.062 kg/ha): 0.0
- Preemergence herbicidal rating, ZEAMX (ZEAMX Corn, Field [2]; rate 0.125 kg/ha): 0.0
- Postemergence herbicidal rating CHEAL ([3]; rate 0.008 kg/ha): 2.0
- Postemergence herbicidal rating CHEAL ([3]; rate 0.016 kg/ha): 4.0
- Postemergence herbicidal rating CHEAL ([3]; rate 0.032 kg/ha): 7.0
- Postemergence herbicidal rating CHEAL ([3]; rate 0.062 kg/ha): 7.0
- Postemergence herbicidal rating IPOHE ([4]; rate 0.008 kg/ha): 9.0
- Postemergence herbicidal rating IPOHE ([4]; rate 0.016 kg/ha): 9.0
- Postemergence herbicidal rating IPOHE ([4]; rate 0.032 kg/ha): 9.0
- Postemergence herbicidal rating IPOHE ([4]; rate 0.062 kg/ha): 9.0
- Preemergence herbicidal rating, GALAP (GALAP Galium; rate 0.016 kg/ha): 0.0
- Preemergence herbicidal rating, GALAP (GALAP Galium; rate 0.032 kg/ha): 0.0
- Preemergence herbicidal rating, GALAP (GALAP Galium; rate 0.062 kg/ha): 4.0
- Preemergence herbicidal rating, GALAP (GALAP Galium; rate 0.125 kg/ha): 4.0
- Postemergence herbicidal rating CASOB (CASOB Sicklepod; rate 0.008 kg/ha): 0.0
- Postemergence herbicidal rating CASOB (CASOB Sicklepod; rate 0.016 kg/ha): 0.0
- Postemergence herbicidal rating CASOB (CASOB Sicklepod; rate 0.032 kg/ha): 4.0
- Postemergence herbicidal rating CASOB (CASOB Sicklepod; rate 0.062 kg/ha): 5.0
- Postemergence herbicidal rating ZEAMX (ZEAMX Corn, Field [5]; rate 0.008 kg/ha): 7.5
- Postemergence herbicidal rating ZEAMX (ZEAMX Corn, Field [5]; rate 0.016 kg/ha): 8.0
- Postemergence herbicidal rating ZEAMX (ZEAMX Corn, Field [5]; rate 0.032 kg/ha): 8.0
- Postemergence herbicidal rating ZEAMX (ZEAMX Corn, Field [5]; rate 0.062 kg/ha): 9.0
- Postemergence herbicidal rating GLXMAW (GLXMAW Soybean, Williams; rate 0.008 kg/ha): 6.0
- Postemergence herbicidal rating GLXMAW (GLXMAW Soybean, Williams; rate 0.016 kg/ha): 6.5
- Postemergence herbicidal rating GLXMAW (GLXMAW Soybean, Williams; rate 0.032 kg/ha): 8.0
- Postemergence herbicidal rating GLXMAW (GLXMAW Soybean, Williams; rate 0.062 kg/ha): 8.0
- Postemergence herbicidal rating TRZAWR ([6]; rate 0.008 kg/ha): 4.0
- Postemergence herbicidal rating TRZAWR ([6]; rate 0.016 kg/ha): 6.0
- Postemergence herbicidal rating TRZAWR ([6]; rate 0.032 kg/ha): 6.0
- Postemergence herbicidal rating TRZAWR ([6]; rate 0.062 kg/ha): 8.0
- Preemergence herbicidal rating, TRZAWR ([7]; rate 0.016 kg/ha): 0.0
- Preemergence herbicidal rating, TRZAWR ([7]; rate 0.032 kg/ha): 0.0
- Preemergence herbicidal rating, TRZAWR ([7]; rate 0.062 kg/ha): 0.0
- Preemergence herbicidal rating, TRZAWR ([7]; rate 0.125 kg/ha): 1.0
- Postemergence herbicidal rating AMBEL (AMBEL Ragweed, Common; rate 0.008 kg/ha): 2.0
- Postemergence herbicidal rating AMBEL (AMBEL Ragweed, Common; rate 0.016 kg/ha): 3.0
- Postemergence herbicidal rating AMBEL (AMBEL Ragweed, Common; rate 0.032 kg/ha): 7.0
- Postemergence herbicidal rating AMBEL (AMBEL Ragweed, Common; rate 0.062 kg/ha): 9.0
